The results in this text go back to patent US20260337153A1, “IONIZABLE AMINE LIPIDS” (Intellia Therapeutics, Inc., priority 2023, published 2026).

In series [1] the test system is rat TTR. The series is described as follows: Serum TTR level after LNP delivery (Rat Prealbumin (Transthyretin) ELISA). The series is classed as in vivo, rat (Sprague-Dawley). To be noted: Experiment 2, 0.1 mpk, LNP with PEG2K-DMG. On the procedure: Sprague-Dawley female rats, ranging from 6-10 weeks of age were used in each study. Animals were weighed and dosed based on individual body weight measured the morning of dosing. LNPs were dosed via the lateral tail vein in a volume of 2 mL per kilogram of animal body weight. The animals were periodically observed for adverse effects for at least 24 hours post dose.
For studies measuring in vivo editing in liver, Sprague-Dawley female rats were dosed at 0.1 mpk or 0.03 mpk, unless otherwise noted. Animals were euthanized at 6 or 7 days by carbon dioxide asphyxiation and a heart clip or by ex sanguination via cardiac puncture under isoflourane anesthesia. Blood was collected into serum separator tubes. Liver tissue was collected. Genomic DNA was isolated from the liver tissue for editing measurement by Next-Generation Sequencing (NGS).
Blood was collected and the serum was isolated as indicated. The total rat TTR serum levels were determined using a Rat Prealbumin (Transthyretin) ELISA Kit (Aviva Systems Biology, Cat. #OKIA00159). Briefly, sera were serial diluted with kit sample diluent to a final dilution of 10,000-fold. This diluted sample was then added to the ELISA plates and the assay was then carried out according to manufacturer's protocol.
(§1) In vivo editing efficiency for materials delivered with formulations including various amine lipid (or ionizable lipid) compounds in Experiments 1 through 14 as described in Tables 3 and 4 was assessed. Editing was measured using G000534 (SEQ ID NO: 5) which targets the rat TTR gene. Lipids described above were assessed for efficacy through in vivo editing experiments. LNPs were formulated at a 1:2 w/w ratio of sgRNA (SEQ ID NO: 5) and Cas9 mRNA (SEQ ID NO: 3). In Experiments 1 through 13, lipid components of the LNP are formulated in a molar ratio of 50% ionizable lipid, 38% cholesterol, 9% DSPC, and 3% PEG2K-DMG. In Experiment 14, lipid components of the LNP are formulated in a molar ratio of 50% ionizable lipid, 38% cholesterol, 9% DSPC, and 3% C13 Ether. The final LNPs used in different in vivo editing experiments were characterized to determine the encapsulation efficiency (% E), polydispersity index (PDI), and average particle size (Z-avg and number mean) according to the analytical methods provided above. The pKa values of each of the following ionizable lipids were also measured to be in the range of about 5.8 to about 7.6.
TSS was used as a vehicle-only negative control. The data are illustrated in FIGS. 1A through 14.
For orientation: ELISA stands for enzyme-linked immunosorbent assay.

Series [2] can be described thus: LNP encapsulation efficiency of RNA (Ribogreen fluorescence assay). To be noted: sgRNA:mRNA 1:2. The series is classed as physicochemical. On the procedure: LNP compositions are analyzed for average particle size, polydispersity index (pdi), total RNA content, encapsulation efficiency of RNA, and zeta potential. LNP compositions may be further characterized by lipid analysis, AF4-MALS, NTA, and/or cryo-EM.
Encapsulation efficiency is calculated as (Total RNA−Free RNA)/Total RNA. A fluorescence-based assay (Ribogreen®, ThermoFisher Scientific) is used to determine total RNA concentration and free RNA. LNP samples are diluted appropriately with 1×TE buffer containing 0.2% Triton-X 100 to determine total RNA or 1×TE buffer to determine free RNA. Standard curves are prepared by utilizing the starting RNA solution used to make the compositions and diluted in 1×TE buffer+/−0.2% Triton-X 100. Diluted RiboGreen® dye (according to the manufacturer's instructions) is then added to each of the standards and samples and allowed to incubate for approximately 10 minutes at room temperature, in the absence of light. A SpectraMax M5 Microplate Reader (Molecular Devices) is used to read the samples with excitation, auto cutoff and emission wavelengths set to 488 nm, 515 nm, and 525 nm respectively. Total RNA and free RNA are determined from the appropriate standard curves. Alternatively, the total RNA concentration can be determined by a reverse-phase ion-pairing (RP-IP) HPLC method. Triton X-100 is used to disrupt the LNPs, releasing the RNA. The RNA is then separated from the lipid components chromatographically by RP-IP HPLC and quantified against a standard curve using UV absorbance at 260 nm.
as §1
In vivo editing efficiency for materials delivered with formulations including various combinations of amine lipid (or ionizable lipid) and PEG lipid compounds was assessed as described in Tables 5 and 6. Editing was measured using G000534 (SEQ ID NO: 5) which targets the rat TTR gene. Lipids described above were assessed for efficacy through in vivo editing experiments. LNPs were formulated at a 1:2 w/w ratio of sgRNA (SEQ ID NO: 5) and Cas9 mRNA (SEQ ID NO:3). Lipid components of the LNP are formulated in a molar ratio of 50% ionizable lipid, 38% cholesterol, 9% DSPC, and 3% of various PEG lipids (e.g., PEG2K-DMG, C13 Ether, C14 Ether). The final LNPs used in different in vivo editing experiments were characterized to determine the encapsulation efficiency (% E), polydispersity index (PDI), and average particle size (Z-avg and number mean) according to the analytical methods provided above. The pKa values of each of the following ionizable lipids were also measured to be in the range of about 5.8 to about 7.6.
In vivo editing efficiency for materials delivered with formulations including various amine lipid (or ionizable lipid) compounds as described in Tables 7 and 8 was assessed. […]

Where [3] appears, read: Table 3, Experiments 1-13, LNP 50% ionizable lipid, 38% cholesterol, 9% DSPC, 3% PEG2K-DMG.
Setting [4] is: LNP with 50% ionizable lipid, 38% cholesterol, 9% DSPC, 3% C13 Ether (LNP #1, Compound 53: 3% PEG2K-DMG instead).

With `CCCCCCCCC(CCCCCCCC)OC(=O)CCCC(=O)OCC(COC(=O)CCCC(=O)OC(CCCCCCCC)CCCCCCCC)COC(=O)OCCCN(CC)CC` [Compound 2, O,O′-(2-((((3-(diethylamino)propoxy)carbonyl)oxy)methyl)propane-1,3-diyl) di(heptadecan-9-yl) diglutarate], in series [1], the “% TSS (serum TTR relative to vehicle)” value is reported as 17% and the “Serum TTR” value worked out at 238.5 µg/mL. In addition, the “% E (encapsulation efficiency)” value in series [2] (Table 3, Experiment 14, LNP with 3% C13 Ether) worked out at 99%. Further, the “% E (encapsulation efficiency)” value in series [2] (setting [3]) came out at 98%. On to `CCCCCCCCOC(CCC(=O)OCC(COC(=O)CC(CCCC)CCCCCC)COC(=O)OCCCN(CC)CC)OCCCCCCCC` (stereo not drawn) [Compound 43, 3-((4,4-bis(octyloxy)butanoyl)oxy)-2-((((3-(diethylamino)propoxy)carbonyl)oxy)methyl)propyl 3-butylnonanoate], for which the “% E (encapsulation efficiency)” value in series [2] (setting [3]) came to 98%. As for `CCCCCCCCOC(CCC(=O)OCC(COC(=O)NCCN(CC)CC)COC(=O)C(CCCC)CCCCCC)OCCCCCCCC` (stereo not drawn) [Compound 48, 3-((4,4-bis(octyloxy)butanoyl)oxy)-2-((((2-(diethylamino)ethyl)carbamoyl)oxy)methyl)propyl 2-butyloctanoate], the “% E (encapsulation efficiency)” value in series [2] (setting [3]) came to 94%. Consider `CCCCC/C=C\C/C=C\CCCCCCCC(=O)OCC(COC(=O)CCCC(=O)OC(CCCCCCCC)CCCCCCCC)COC(=O)N(C)CCN(CC)CC` (stereo not drawn) [Compound 49, 3-(((2-(diethylamino)ethyl)(methyl)carbamoyl)oxy)-2-((((9Z,12Z)-octadeca-9,12-dienoyl)oxy)methyl)propyl heptadecan-9-yl Glutarate], for which the “% E (encapsulation efficiency)” value in series [2] (setting [3]) is listed as 97%. As for `CCCCC/C=C\C/C=C\CCCCCCCC(=O)OCC(COC(=O)CCCC(=O)OC(CCCCCCCC)CCCCCCCC)COC(=O)NCCN1CCCCCC1` (stereo not drawn) [Compound 50, 3-(((2-(azepan-1-yl)ethyl)carbamoyl)oxy)-2-((((9Z,12Z)-octadeca-9,12-dienoyl)oxy)methyl)propyl heptadecan-9-yl Glutarate], the “% E (encapsulation efficiency)” value in series [2] (setting [3]) is given as 98%. Turning to `CCCCCCCCC(CCCCCCCC)OC(=O)CCCCCC(=O)OCC(CCCCCCCCC(=O)OCC(CCCC)CCCCCC)COC(=O)NCCN(CC)CC` (stereo not drawn) [Compound 51, 1-(11-((2-butyloctyl)oxy)-2-((((2-(diethylamino)ethyl)carbamoyl)oxy)methyl)-11-oxoundecyl) 7-(heptadecan-9-yl) heptanedioate], the “% E (encapsulation efficiency)” value in series [2] (setting [3]) turned out to be 99%.

On to `CCCCCCCCC(CCCCCCCC)OC(=O)CCCCCCC(=O)OCC(COC(=O)CCCCCCC(=O)OC(CCCCCCCC)CCCCCCCC)COC(=O)NCCN(CC)CC` [Compound 52, O′1,O1-(2-((((2-(diethylamino)ethyl)carbamoyl)oxy)methyl)propane-1,3-diyl) 8,8′-di(heptadecan-9-yl) di(octanedioate)], for which the “% E (encapsulation efficiency)” value in series [2] (setting [4]) was 97%; in series [2] (setting [3]), 97%; in series [2] (Table 7, LNP with 3% C13 Ether), 97%. As for `CCCCCCCCCOC(=O)CCCCCCCN(CCO)CCCCCCCC(=O)OC(CCCCCCCC)CCCCCCCC` [Compound 55], the “% E (encapsulation efficiency)” value in series [2] (setting [3]) was 84%. For `CCCCCCCCC(CCCCCCCC)OC(=O)CCCCCCC(=O)OCC(COC(=O)CCCCCCC(=O)OC(CCCCCCCC)CCCCCCCC)COC(=O)OCCCN(CC)CC` [Compound 60], the “% E (encapsulation efficiency)” value in series [2] (setting [3]) is reported as 97%; in series [2] (Table 5, PEG lipid C13 Ether), 95%; in series [2] (Table 5, PEG lipid C14 Ether), 96%; in series [2] (Table 5, PEG lipid PEG2K-DMG), 96%.

Regarding `CCCCCCCCC(CCCCCCCC)OC(=O)CCCCCCC(=O)OCC(COC(=O)CCCCCCC(=O)OC(CCCCCCCC)CCCCCCCC)COC(=O)NCCCN(CC)CC` [Compound 61], the “% E (encapsulation efficiency)” value in series [2] (setting [3]) was determined as 100%. `CCCCCCCCC(CCCCCCCC)CC(=O)OCCC(=O)OCC(COC(=O)CCCC(=O)OC(CCCCCCCC)CCCCCCCC)COC(=O)NCCN(CC)CC` (stereo not drawn) [Compound 63, 3-(((2-(diethylamino)ethyl)carbamoyl)oxy)-2-(((3-((3-octylundecanoyl)oxy)propanoyl)oxy)methyl)propyl heptadecan-9-yl Glutarate]: the “% E (encapsulation efficiency)” value in series [2] (Table 7, LNP with 3% C13 Ether) was found to be 96%. In the case of `CCCCCCCCC(CCCCCCCC)OC(=O)CCCCCC(=O)OCC(COC(=O)CCCCCC(=O)OC(CCCCCCCC)CCCCCCCC)COC(=O)OCCCN1CCCC1` [Compound 64, 7,7′-di(heptadecan-9-yl) O′1,O1-(2-((((3-(pyrrolidin-1-yl)propoxy)carbonyl)oxy)methyl)propane-1,3-diyl) di(heptanedioate)], the “% E (encapsulation efficiency)” value in series [2] (setting [4]) is on record as 99%. Take `CCCCCCCCC(CCCCCCCC)OC(=O)CCCCCCC(=O)OCC(COC(=O)CCCCCCC(=O)OC(CCCCCCCC)CCCCCCCC)COC(=O)OCCCN1CCCC1` [Compound 65, 8,8′-di(heptadecan-9-yl) O′1,O1-(2-((((3-(pyrrolidin-1-yl)propoxy)carbonyl)oxy)methyl)propane-1,3-diyl) di(octanedioate)]: in series [2] (setting [4]), the “% E (encapsulation efficiency)” value came out at 99%. Take `CCCCCCCCC(CCCCCCCC)OC(=O)CCCCCCC(=O)OCC(CC)(COC(=O)CCCCCCC(=O)OC(CCCCCCCC)CCCCCCCC)COC(=O)NCCN(CC)CC` [Compound 66, O′1,O1-(2-((((2-(diethylamino)ethyl)carbamoyl)oxy)methyl)-2-ethylpropane-1,3-diyl) 8,8′-di(heptadecan-9-yl) di(octanedioate)]: in series [2] (setting [4]), the “% E (encapsulation efficiency)” value is 99%. The same measure, in the same setting: then `CCCCCCCCC(CCCCCCCC)OC(=O)CCCCCCC(=O)OCC(CC)(COC(=O)CCCCCCC(=O)OC(CCCCCCCC)CCCCCCCC)COC(=O)OCCCN1CCCC1` [Compound 67, O′1,O1-(2-ethyl-2-((((3-(pyrrolidin-1-yl)propoxy)carbonyl)oxy)methyl)propane-1,3-diyl) 8,8′-di(heptadecan-9-yl) di(octanedioate)], with 99%; and `CCCCCCCCC(CCCCCCCC)OC(=O)CCCCC(=O)OCC(COC(=O)CCCCC(=O)OC(CCCCCCCC)CCCCCCCC)COC(=O)NCCN(CC)CC` [Compound 68, O,O′-(2-((((2-(diethylamino)ethyl)carbamoyl)oxy)methyl)propane-1,3-diyl) di(heptadecan-9-yl) diadipate], with 99%.
